The record followed here is patent US12286401B2, “Small molecules that sensitize HIV-1 infected cells to antibody dependent cellular cytotoxicity” (THE TRUSTEES OF THE UNIVERSITY OF PENNSYLVANIA, priority 2018, dated 2025).

Assay [1] concerns CH58TF infected primary CD4+ T-cells. Briefly: HIV+ patient sera/plasma recognition of CH58TF infected primary CD4+ T-cells (flow cytometry cell-surface staining). The conditions noted are these: Human immunodeficiency virus 1, T-cell, read-out: Fold Over DMSO (patient sera, n = 3). It counts as cell-based, HIV-1. How it is done: (§1) Cell-surface staining of primary CD4+ T cells from healthy HIV uninfected individuals or CEM-NKr cells is performed, as described in Prevost, “Influence of the Envelope gp120 Phe 43 Cavity on HIV-1 Sensitivity to Antibody-Dependent Cell-Mediated Cytotoxicity Responses,” 2017, J. Virol 91; Richard, “CD4 mimetics sensitize HIV-1-infected cells to ADCC,” 2015, Proc. Natl. Acad. Sci. USA, 112:E2687-2694; Richard, “Small CD4 Mimetics Prevent HIV-1 Uninfected Bystander CD4+ T Cell Killing Mediated by Antibody-dependent Cell-mediated Cytotoxicity,” 2016, EBioMedicine 3:122-134; Veillette, “The HIV-1 gp120 CD4-Bound Conformation Is Preferentially Targeted by Antibody-Dependent Cellular Cytotoxicity-Mediating Antibodies in Sera from HIV-1-Infected Individuals,” 2015, J. Virol., 89:545-551; Veillette, “Interaction with cellular CD4 exposes HIV-1 envelope epitopes targeted by antibody-dependent cell-mediated cytotoxicity,” 2014, J. Virol., 88:2633-2644; Richard, “Uninfected Bystander Cells Impact the Measurement of HIV-Specific Antibody-Dependent Cellular Cytotoxicity Responses,” 2018, MBio. 9(2): e00358-18; Richard, “BST-2 Expression Modulates Small CD4-Mimetic Sensitization of HIV-1-Infected Cells to Antibody-Dependent Cellular Cytotoxicity,” 2017, J. Virol. 91(11):e00219-17. Binding of HIV-1 infected cells by HIV+ sera (1:1000 dilution) or anti-Env Abs (such as 17b) is performed […] in vitro infection at 37° C. in presence of different concentrations of the MCG analogs or with equivalent volume of vehicle (DMSO). Cells infected with HIV-1 primary isolates are stained intracellularly for HIV-1 p24 using the Cytofix/Cytoperm Fixation/Permeabilization Kit (BD Biosciences, Mississauga, ON, Canada) and then fluorescent anti-p24 mAb (PE-anti-p24, clone KC57; Beckman Coulter/Immunotech, Hialeah, FL) (1:100 final concentration). The percentage of infected cells (p24^+ or GFP+ cells) is determined by gating the living cell population based on the viability dye staining. Samples are analyzed on an LSRII cytometer (BD Biosciences, Mississauga, ON, Canada) and data analysis is performed using FlowJo vX0.7 (Tree Star, Ashland, OR, USA).
HIV+ Patient Sera (n=3) Recognition of CH58TF Infected Primary CD4+ T-Cells
Staining with patient sera and 50 μM of compounds given as a fold change over DMSO (vehicle).
(§2) Briefly, Primary CD4 T cells isolated from PBMC were infected with HIV-1CH58TF for 48 hours. For cell surface staining, 5 μg/ml 17b (FIG. 15A) or 1:1000 diluted HIV+ plasma (n=15) (FIG. 15B) were used in the presence of the different MCG analogs (50 μM), (+)-BNM-III-170 or with an equivalent volume of vehicle (DMSO). An Alexa Fluor 647-conjugated anti-human IgG secondary Ab was then used for fluorescent labeling. For ADCC (FIG. 15C), infected cells were used as target cells in a FACS-based ADCC assay that measures the killing of infected (p24+ cells). See, Madani, 2016, J. Virol., 90:5031-5046. The assay determines susceptibility to ADCC mediated by a 1/1,000 dilution of plasma from 15 HIV-1-infected individuals in the presence of the different MCG analogs (50 μM), (+)-BNM-III-170 (50 μM) or with an equivalent volume of vehicle (DMSO). Correlation between cell-surface staining with HIV+ plasma and ADCC was calculated using the Spearman rank correlation (FIG. 15D).
A general note: Flow cytometry measures light scatter and fluorescence of single cells or particles in a stream.

Assay [2] has the same test system. In words: Recognition of HIV-1 infected cells by 17b (flow cytometry cell-surface staining). It counts as cell-based. The conditions noted are these: Human immunodeficiency virus 1, T-cell, read-out: Fold Over DMSO (17b, n = 1). How it is done:
as §1, §2

In assay [3] the test system is HIV-1JR-FL EnvΔCT expressed at the surface of HOS cells. Briefly: Cell-based ELISA (CBE), 17b readout. The conditions noted are these: MCG analogs 50 μM; BNM-III-170 5 μM; 2G12 and DMSO normalized. The method, then:
Detection of trimeric HIV-1 Env at the surface of HOS cells was performed by cell-based ELISA, as described in Desormeaux, “The highly conserved layer-3 component of the HIV-1 gp120 inner domain is critical for CD4-required conformational transitions,” J. Virol. 87:2549-2562; Alsahafi, “Effects of the I559P gp41 change on the conformation and function of the human immunodeficiency virus (HIV-1) membrane envelope glycoprotein trimer,” 2015, PLoS One 10:e0122111; and Veillette, “Conformational evaluation of HIV-1 trimeric envelope glycoproteins using a cell-based ELISA assay,” 2014, J. Vis. Exp., 91:51995. To enhance cell-surface expression of HIV-1 EnvRF a stop codon was introduced to replace the codon for Gly 711, truncating the cytoplasmic tail (ACT). Briefly, HOS cells were seeded in T-75 flasks (3×10^6 cells per flask) and transfected the next day with 22.5 μg of Env-expressing plasmids (wild-type and mutants S375W, S375T, H66A, A582T/L587A, etc) using the standard polyethylenimine (PEI, Polyscience Inc, PA, USA) transfection method. Twenty-four hours after transfection, cells were plated in 384-wells plates (2×10^4 cells per well). One day later, cells were washed twice with blocking buffer (10 mg/mL non-fat dry milk, 1.8 mM CaCl2), 1 mM MgCl2, 25 mM Tris, pH 7.5 and 140 mM NaCl) and then incubated for 30 minutes at room temperature with different concentrations of MCG analogs or equivalent volume of vehicle (DMSO). Cells were then incubated for an additional 1 h at room temperature with anti-HIV-1 Env monoclonal antibodies recognizing CD4-induced gp120 epitopes (17b, A32), CD4-binding site gp120 epitopes (VRC03, VRC01, F105, and b12), gp120 V3 glycans (19b, PGT126, PGT122, and 10.1074), gp120 outer domain (2G12), and gp120-gp41 interface (PGT151 and VRC34) epitopes. All ligands were diluted in blocking buffer. A horseradish peroxidase-conjugated antibody specific for the Fc region of human or mouse IgG (Pierce) was then incubated with the samples for 45 minutes at room temperature. For all conditions, cells were washed 5 times with blocking buffer and 5 times with washing buffer (1.8 mM CaCl2), 1 mM MgCl2, 25 mM Tris, pH 7.5 and 140 mM NaCl). HRP enzyme activity was determined after the addition of 20 μl per well of a 1:1 mix of Western Lightning oxidizing and luminol reagents (Perkin Elmer Life Sciences). Light emission was measured with an LB 941 TriStar luminometer (Berthold Technologies) and analysis with Graph Pad software.
The data of Table 2 is given as the fold over BNM-III-170 (5 μM) of Cell-Based ELISA with MCG Analogs (50 μM)—17b readout, 2G12 and DMSO normalized.
To identify molecules able to expose vulnerable Env epitopes, a cell-based ELISA (CBE) assay was adapted, capable of measuring conformational changes of membrane-bound trimeric Env as described in Veillette, 2014, J. Vis. Exp. doi:10.3791/51995:51995; Haim, 2011, PLoS Pathog 7:e1002101, into a high-throughput screening (HTS) platform (FIG. 10A). Briefly, the cytoplasmic-tail deleted HIV-1JR-FL Tier-2/3 Env was expressed on the surface of HOS cells in a 384-well-plate format. The cytoplasmic tail of Env was deleted to enhance Env expression at the cell surface and therefore enhance the sensitivity of the CBE assay. See, Veilette and Haim, 2009, PLoS Pathog 5:e100036. Small molecules or, as a positive control, soluble (sCD4) were added to expose the HIV-1JR-FL EnvΔCT epitope that can be recognized by the CD4i antibody 17b. See, Wyatt, 1995, J. Virol. 69:5723-5733; Rizzuto, 1998, Science 280:1949-1953.
17b binding was detected by a horseradish peroxidase-conjugated (HRP) second antibody, and HRP enzyme activity was measured by Western Lightning oxidizing and luminal reagents. 17b binding in the presence of sCD4 was set as the control (FIG. 10B, blue dots), small molecules that enhanced 17b binding above 25% of the one induced by sCD4 were retested in quadruplicate and only one molecule (UM0059920) was deemed a true positive (FIG. 10B, red dots). […]
In general terms: An ELISA detects its analyte on a solid surface through an enzyme-linked reagent.

`CCS(=O)(=O)N1CCC[C@H](C(=O)Nc2ccc(Br)c(Cl)c2)C1` [(S)-MCG-III-085-C06]: the fold induction at 50 µM in assay [1] was determined as 1.28; in assay [2] it was 3.1. The “Fold over BNM-III-170 - 17b binding (±0.05)” value (“Fold … (±0.05)” below) in assay [3] worked out at 0.34 fold.
Take `O=C(Nc1ccc(Cl)c(F)c1)[C@H]1CCCN(S(=O)(=O)c2ccccc2)C1` [(S)-MCG-III-085-D01]: the fold induction at 50 µM in assay [1] is 5.95; in assay [2], 6.4. Besides, in assay [3], the “Fold … (±0.05)” value came to 0.45 fold.
Consider `O=C(Nc1ccc(F)c(Cl)c1)[C@H]1CCCN(S(=O)(=O)c2ccccc2)C1` [(S)-MCG-III-085-D02], for which the fold induction at 50 µM in assay [1] came out at 1.37; in assay [2], 2.54. In addition, in assay [3], the “Fold … (±0.05)” value is on record as 0.18 fold.
Regarding `O=C(Nc1ccc(Cl)c(Cl)c1)[C@H]1CCCN(S(=O)(=O)c2ccccc2)C1` [(S)-MCG-III-085-D03], the fold induction at 50 µM turned out to be 2.03 in assay [1] and 4.87 in assay [2]. Further, the “Fold … (±0.05)” value in assay [3] stood at 0.20 fold.
`O=C(Nc1ccc(F)c(F)c1)[C@H]1CCCN(S(=O)(=O)c2ccccc2)C1` [(S)-MCG-III-085-D04]: the fold induction at 50 µM came to 1.84 in assay [1] and 3.15 in assay [2]. Moreover, the “Fold … (±0.05)” value in assay [3] is recorded as 0.28 fold.
For `O=C(Nc1ccc(Cl)c(Br)c1)[C@H]1CCCN(S(=O)(=O)c2ccccc2)C1` [(S)-MCG-III-085-D05], in that order: 1.55, 5.58 and 0.10 fold.
Take `O=C(Nc1ccc(Br)c(Cl)c1)[C@H]1CCCN(S(=O)(=O)c2ccccc2)C1` [(S)-MCG-III-085-D06]: the results for the fold induction at 50 µM in assay [1] and in assay [2] were 2 and 6.46, respectively. In assay [3], the “Fold … (±0.05)” value was 0.19 fold.
Regarding `O=C(Nc1ccc(Cl)c(F)c1)[C@H]1CCCN(S(=O)(=O)c2cccnc2)C1` [(S)-MCG-III-116-A01], the fold induction at 50 µM in assay [1] came out at 2.15. Also, the “Fold … (±0.05)” value in assay [3] came out at 0.41 fold.
Taken in the same sequence, the figures for `O=C(Nc1ccc(Cl)c(F)c1)[C@H]1CCCN(S(=O)(=O)C2CCCCC2)C1` [(S)-MCG-III-116-A03] were 1.56 and 0.36 fold.
Turning to `COc1ccc(S(=O)(=O)N2CCC[C@H](C(=O)Nc3ccc(Cl)c(F)c3)C2)cc1` [(S)-MCG-III-116-A05], in assay [1], the fold induction at 50 µM turned out to be 1.1. Besides, the “Fold … (±0.05)” value in assay [3] is 0.29 fold.
In the case of `N#Cc1ccc(S(=O)(=O)N2CCC[C@H](C(=O)Nc3ccc(Cl)c(F)c3)C2)cc1` [(S)-MCG-III-116-A06], the fold induction at 50 µM in assay [1] turned out to be 1.15. Also, in assay [3], the “Fold … (±0.05)” value turned out to be 0.31 fold.
With `CC(=O)Nc1ccc(S(=O)(=O)N2CCC[C@H](C(=O)Nc3ccc(Cl)c(F)c3)C2)cc1` [(S)-MCG-III-117], the fold induction at 50 µM in assay [1] amounted to 1.89. Moreover, the “Fold … (±0.05)” value in assay [3] amounted to 0.21 fold.
On to `O=C(Nc1ccc(Cl)c(F)c1)[C@H]1CCCN(S(=O)(=O)c2ccc(Br)cc2)C1` [(S)-MCG-III-128], for which the fold induction at 50 µM in assay [1] was 1.07. For the same compound, the “Fold … (±0.05)” value in assay [3] is on record as 0.21 fold.
On to `O=C(Nc1ccc(Cl)c(F)c1)[C@H]1CCCN(C(=O)Oc2ccccc2)C1` [(S)-MCG-III-188-A03], for which the fold induction at 50 µM in assay [1] was 4.61; in assay [2], 3.11. Further, in assay [3], the “Fold … (±0.05)” value came out at 0.47 fold.
As for `CS(=O)(=O)N1CCC(C(=O)Nc2ccc(Cl)c(F)c2)CC1` [MCG-III-101], the fold induction at 50 µM in assay [1] came to 1.14. Further, in assay [3], the “Fold … (±0.05)” value worked out at 0.21 fold.
In the case of `O=C(Nc1ccc(Cl)c(F)c1)C1CCN(S(=O)(=O)c2ccccc2)C1` (centres unmarked) [MCG-III-157-A03], the fold induction at 50 µM in assay [1] was 1.57. Also, the “Fold … (±0.05)” value in assay [3] was 0.33 fold.
For `CCS(=O)(=O)N1CCCC(C(=O)Nc2ccc(Cl)c(F)c2)C1` (centres unmarked) [MCG-III-157-B02], the fold induction at 50 µM in assay [1] was 2.62. Further, the “Fold … (±0.05)” value in assay [3] was found to be 0.68 fold.
Taken in the same sequence, the figures for `CS(=O)(=O)N1CCCC(NC(=O)c2ccc(Cl)c(F)c2)C1` (centres unmarked) [MCG-III-157-C01] were 1.04 and 0.08 fold.
